Tests used:
Assay in all cases: relative viability (nuclei count vs DMSO), 5 days (fraction); higher = more cells survive
[1] = compound: C1/C(=C\C2=CC=CS2)/C(=O)/C(=C/C3=CC=CS3)/C1
Summary of the method: (§1)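 Five library-drug doses, separated by factors of √10, were pinned into 1536-well plates holding lung cancer cell lines after an overnight stay at 37 °C. Cells were fixed, permeabilised and Hoechst-stained in one step after 5 days without medium change, then imaged at 4×. Viability compares treated-well with vehicle-well nuclei, counted in MetaXpress, as a median across plates. Passing plates had control CV below 25% and at least one doubling.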

TPCA-1 = compound: C1=CC(=CC=C1C2=CC(=C(S2)NC(=O)N)C(=O)N)F [TPCA-1]
Summary of the method: as §1

Lestaurtinib = compound: C[C@]12O[C@H](C[C@]1(O)CO)n1c3ccccc3c3c4c(c5c6ccccc6n2c5c31)CNC4=O [Lestaurtinib]
Summary of the method: as §1

TPCA-1 + Crizotinib = compound: C1=CC(=CC=C1C2=CC(=C(S2)NC(=O)N)C(=O)N)F [TPCA-1] + C[C@@H](Oc1cc(-c2cnn(C3CCNCC3)c2)cnc1N)c1c(Cl)ccc(F)c1Cl [Crizotinib] (partner 1 µM)
Summary of the method: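 Nuclei were stained with Hoechst during a one-step fixation (final 0.05% Triton X-100, 1% formaldehyde, 1 ug/ml Hoechst) carried out 5 days after dosing, then counted on 4× images. The cells, lung cancer lines in 1536-well plates, had been dosed by pin tool the day after seeding with one drug alone or a fixed anchor-drug dose plus five library-drug doses (not always all listed) in √10 steps. Relative viability is the nuclei count in treated wells divided by that in vehicle wells, and each value is the median of duplicate plates.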

Cell Line | relative viability ([1]; 0.2 µM) | relative viability ([1]; 0.6325 µM) | relative viability ([1]; 2 µM) | relative viability ([1]; 6.325 µM) | relative viability ([1]; 20 µM) | relative viability (TPCA-1; 0.04 µM) | relative viability (TPCA-1; 0.1265 µM) | relative viability (TPCA-1; 0.4 µM) | relative viability (TPCA-1; 1.265 µM) | relative viability (TPCA-1; 4 µM) | relative viability (Lestaurtinib; 0.005 µM) | relative viability (Lestaurtinib; 0.01581 µM) | relative viability (Lestaurtinib; 0.05 µM) | relative viability (Lestaurtinib; 0.1581 µM) | relative viability (Lestaurtinib; 0.5 µM) | relative viability (TPCA-1 + Crizotinib; first compound 0.04 µM) | relative viability (TPCA-1 + Crizotinib; first compound 0.1265 µM) | relative viability (TPCA-1 + Crizotinib; first compound 0.4 µM) | relative viability (TPCA-1 + Crizotinib; first compound 1.265 µM) | relative viability (TPCA-1 + Crizotinib; first compound 4 µM)
NCI-H727 | 1.09 | 0.887 | 1.02 | 0.709 | 0.954 | 0.939 | 0.86 | 0.961 | 0.78 | 0.734 | 1.07 | 1.21 | 1.03 | 0.787 | 0.476 | 0.82 | 0.677 | 1.05 | 0.64 | 0.706
NCI-H838 | 0.97 | 0.981 | 1.04 | 0.79 | 0.904 | 1.04 | 0.863 | 0.967 | 0.755 | 0.739 | 1 | 0.986 | 0.811 | 0.58 | 0.193 | 0.837 | 0.752 | 0.806 | 0.698 | 0.471
NCI-H1299 | 0.993 | 1.04 | 0.963 | 0.859 | 0.997 | 1.03 | 0.977 | 0.991 | 1.01 | 1.07 | 1.03 | 1.02 | 0.762 | 0.799 | 0.727 | 0.95 | 0.943 | 0.907 | 0.972 | 0.948
NCI-H1355 | 1 | 0.967 | 0.995 | 0.833 | 0.963 | 1.09 | 0.89 | 0.94 | 0.859 | 0.751 | 1.07 | 1.01 | 0.777 | 0.582 | 0.508 | 1.1 | 1.03 | 1.11 | 0.977 | 0.712
NCI-H1437 | 0.984 | 0.965 | 0.949 | 0.82 | 0.974 | 1.01 | 1.01 | 1.03 | 0.971 | 0.887 | 1.03 | 1.15 | 0.914 | 0.89 | 0.835 | 0.941 | 0.892 | 0.892 | 0.872 | 0.834
NCI-H1563 | 1.01 | 0.876 | 1.03 | 0.936 | 0.998 | 0.886 | 0.964 | 0.971 | 0.941 | 0.956 | 1.06 | 1.02 | 0.913 | 0.972 | 0.72 | 0.945 | 0.954 | 0.89 | 0.953 | 0.811
NCI-H1650 | 0.874 | 0.908 | 1.01 | 0.867 | 0.875 | 1.03 | 0.851 | 1.06 | 0.955 | 0.852 | 0.976 | 1.09 | 0.961 | 1.19 | 0.415 | 1.18 | 0.92 | 1.04 | 1.09 | 0.891
NCI-H1651 | 0.978 | 1.07 | 0.985 | 0.861 | 0.949 | 1.05 | 0.921 | 0.955 | 1.01 | 0.877 | 0.989 | 1.05 | 0.81 | 1.07 | 0.69 | 0.853 | 0.841 | 0.892 | 0.812 | 0.747
NCI-H1666 | 1.02 | 1.02 | 0.922 | 0.919 | 0.955 | 1.09 | 0.972 | 0.982 | 0.973 | 0.904 | 1.11 | 1.13 | 1.31 | 0.986 | 0.894 | 0.894 | 0.971 | 0.977 | 0.918 | 0.993
NCI-H1703 | 1.19 | 1.2 | 1.01 | 0.788 | 0.958 | 1.24 | 0.728 | 0.911 | 0.647 | 0.832 | 0.945 | 0.749 | 0.591 | 0.272 | 0.151 | 0.585 | 0.57 | 0.594 | 0.396 | 0.459
NCI-H1734 | 1.02 | 1.01 | 1.03 | 0.891 | 0.984 | 1.17 | 0.848 | 1.1 | 1.03 | 0.553 | 0.993 | 0.956 | 0.66 | 0.563 | 0.262 | 0.706 | 0.584 | 0.704 | 0.642 | 0.575
NCI-H1755 | 1.02 | 0.987 | 1.04 | 0.807 | 0.999 | 0.951 | 0.941 | 1.01 | 0.922 | 0.765 | 1.02 | 1.05 | 0.965 | 0.736 | 0.351 | 0.83 | 0.772 | 0.922 | 0.831 | 0.48
NCI-H1792 | 1.03 | 1.02 | 1.09 | 0.854 | 0.955 | 1.22 | 0.894 | 0.914 | 0.568 | 0.42 | 0.744 | 1.36 | 0.504 | 0.63 | 0.433 | 1.01 | 0.952 | 1.02 | 0.928 | 0.584

Source: the supplement of paper PMC10307832
